The values below come from article PMC13249423, “Capsaicin acts as a novel NRF2 agonist to suppress ethanol induced gastric mucosa oxidative damage by directly disrupting the KEAP1-NRF2 interaction” (eLife, 2026).

Assay [1] deals with T1, KEAP1 (mutant Kelch domain) (Homo sapiens, UniProt Q14145, N382A/N414A/R380A/R415A/S602A/Y334A/Y572A).
T1 construct: Kelch domain of KEAP1 (Lys312-Cys624)
Briefly: BLI with purified biotinylated mutant Kelch. It is filed as binding.

The target in the next assay is T2, KEAP1 (Kelch domain, WT) (Homo sapiens, UniProt Q14145).
T2 construct: Kelch domain of KEAP1 (Lys312-Cys624)
Briefly: BLI with purified biotinylated Kelch (also HDX-MS, CETSA in GES-1 cells, pull-down and SPR disruption of KEAP1-NRF2). It is filed as binding.

T1 sequence (Q14145 312-624 Y334A/R380A/N382A/N414A/R415A/Y572A/S602A): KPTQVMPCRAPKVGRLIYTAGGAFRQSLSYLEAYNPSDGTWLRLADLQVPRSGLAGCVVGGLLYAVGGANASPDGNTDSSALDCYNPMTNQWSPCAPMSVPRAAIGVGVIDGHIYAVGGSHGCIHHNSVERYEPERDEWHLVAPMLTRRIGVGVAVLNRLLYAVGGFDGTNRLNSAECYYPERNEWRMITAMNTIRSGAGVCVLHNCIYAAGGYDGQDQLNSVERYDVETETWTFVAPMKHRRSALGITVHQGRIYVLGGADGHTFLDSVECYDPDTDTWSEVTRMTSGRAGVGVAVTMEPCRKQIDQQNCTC
T2 sequence (Q14145 312-624): as the sequence (Q14145 312-624 Y334A/R380A/N382A/N414A/R415A/Y572A/S602A) above, with A23Y, A69R, A71N, A103N, A104R, A261Y, A291S counted along it

A word on the Kd: it is a measure of binding affinity in units of concentration. The low end stands for higher affinity, the high end for lower affinity. Turning to `COc1cc(CNC(=O)CCCC/C=C/C(C)C)ccc1O` [CAP, capsaicin], the Kd came to 102 µM in assay [1] and 31.5 µM on KEAP1 (Kelch domain, WT).
